In US6884808B2, “Heterocycle-containing carboxylic acid derivative and drug containing the same” (Eisai Co. Ltd., priority 1995, dated 2005) one finds EC (33% CD11b positive cells), IC50 and melting point data, which are given here for 19 compounds.

The subject of series [1] is HL60 cells. The series is described as follows: Differentiation and induction effects on HL60 cells (CD11b positive cells, flow cytometry). As to conditions: Homo sapiens, HL-60, 120 h; concentration at which the existing ratio of CD11b positive cells becomes 33%; cultivation for 5 days; read-out: Differentiation and induction effects of HL60 cells ED1/3. In kind it is cell-based. An excerpt: Differentiation and Induction Effects on HL60 Cells
It is known that human-derived promyelocytic leukemia cell strains HL60 differentiate into the corresponding granulocytic cells in the presence of all-trans retinoic acid [Breitman, T. Selonick., S. and Colling, S. Proc. Natl. Acad. Sci., 77, 2936(1980)]. In general, cells after differentiation have come to express specific differentiated antigens on their surface. When the HL60 cells are differentiated into granulocytic cells, CD11b which is a differential antigen between granulocytes and monocytes is expressed on the surface of the cells [Fontana, J A., Reppuci, A. Durham, J P. and Mirand, D. Cancer Res. 46, 2469-2473(1986)]. Effects of the invention compound on the differentiation and induction into granulocyte cells were studied by making use of the above-described phenomenon.
HL60 cells were cultured and kept in RPMI 1640 (a medium formulated by Rosewell Park Memorial Institute) to which 10% bovine fetal serum, 1 mM sodium […], 50 μM β-mercaptoethanol, 100 IU/ml of penicillin and 100 μg/ml of streptomycin had been added.
On each well of a 24-well plate, a 1 ml portion of the suspension containing HL60 in an amount of 1×10^5 […] was seeded. The invention compound was then added thereto at varied concentrations, followed by cultivation for 5 days in a 5% CO2-air incubator. After cultivation, the cells of each well were collected in a test tube, to which an FITC-labeled monoclonal antibody against Cd11b, that is, a granulocyte-monocyte specific antigen was added. The cells were then immobilized with 0.2% paraformaldehyde. The existing ratio of CD11b positive cells in the vial HL60 cell group present in each well was determined using flow cytometry [Miller, L J., Schwarting, R. and Springer, T A. J. Immunol. 137, 2891-2900(1986)]. The existing ratios of CD11b positive cells-of-compounds which will be described below were increased according to the concentration. The concentration at which the existing ratio of the positive cells becomes 33% is defined as ED1/3.
For orientation: Flow cytometry measures light scatter and fluorescence of single cells or particles in a stream.

Series [2] has as its target T1, Retinoic acid receptor: RAR (Homo sapiens, UniProt P10276).
T1 construct: using a fraction extracted from the nucleus of HL60; endogenous in cells; host or cells: HL60 cells, nucleus-extracted fraction (0.4 M KCl extract, 100,000 x g supernatant)
T1 sequence (P10276 1-462): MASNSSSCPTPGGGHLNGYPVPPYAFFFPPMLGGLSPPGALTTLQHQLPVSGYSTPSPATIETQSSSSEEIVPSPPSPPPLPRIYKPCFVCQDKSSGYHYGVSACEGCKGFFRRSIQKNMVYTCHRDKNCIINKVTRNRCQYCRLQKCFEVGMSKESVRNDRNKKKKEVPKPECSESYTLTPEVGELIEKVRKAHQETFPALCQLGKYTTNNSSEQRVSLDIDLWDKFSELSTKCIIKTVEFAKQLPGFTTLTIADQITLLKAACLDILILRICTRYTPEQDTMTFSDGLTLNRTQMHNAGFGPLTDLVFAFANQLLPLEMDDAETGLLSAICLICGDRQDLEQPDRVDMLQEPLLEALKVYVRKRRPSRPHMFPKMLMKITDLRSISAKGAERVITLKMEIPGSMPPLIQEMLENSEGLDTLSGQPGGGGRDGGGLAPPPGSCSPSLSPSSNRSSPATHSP
The series can be described thus: Receptor binding assay by using human promyelocytic leukemia cells HL60 (nucleus-extracted fraction, 3H-all-trans retinoic acid). To be noted: 50% inhibition concentration of 3H-all-trans retinoic acid binding, 4° C. for 16 hours. The protocol: Receptor binding assay by using human promyelocytic leukemia cells HL60
The nucleus-extracted fraction was prepared as described below.
In 15 ml of Solution A [5 mM sodium phosphate (pH 7.4), 10 mM monothioglycerol, 10% v/v glycerol, 1 mM phenylmethyl sulfonyl fluoride (PMSF), 10 μg/ml of aprotinin and 25 μg/ml of leupeptin], HL60 cells (5×10^8) were suspended. The resulting suspension was homogenized, followed by centrifugal separation to remove the supernatant. The precipitate so obtained was suspended in 15 ml of Solution B [10 mM tris-HCl (Tris-HCl) (pH 8.5), 10 mM monothioglycerol, 10% (v/v) glycerol, 1 mM PMSF, 10 μg/ml aprotinin, 25 μg/ml leupeptin and 0.4 M KC1]. After being allowed to stand at 4° C. for one hour, the resulting suspension was subjected to ultracentrifugation at 100,000 xg and 4° C. for one hour.
Receptor binding assay was carried out as follows:
The resulting mixture was allowed to stand at 4° C. for 16 hours. […] The count of the supernatant was determined by a scintillation counter.

For orientation: IC50 means the concentration at which inhibition is half-maximal. Take `CC(C)c1cc(-c2ccc(-c3ccc(C(=O)O)cc3)[nH]2)nn1C(C)(C)C` [Compound of Ex. 99, 4-{2-{5-[3-(1-tert-Butyl-5-isopropylpyrazolyl)]pyrrolyl}}benzoic acid]: the EC (33% CD11b positive cells) in series [1] worked out at 4.7e-05 µM. This compound also had an IC50 in series [2] of 3.4 nM.
For orientation: melting point means the temperature of the solid-liquid transition. In the case of `CC1(C)CC(C)(C)c2nc(-c3ccc(-c4ccc(C(=O)O)cc4)[nH]3)cnc21` [Compound of Ex. 43, 4-[2-[5-[2-(5,5,7,7-Tetramethylcyclopenta[b]pyrazinyl)]-pyrrolyl]]benzoic acid], the melting point is 269 °C (dec.). Also, the EC (33% CD11b positive cells) in series [1] stood at 0.00036 µM. Besides, the 50% inhibitory concentration (IC50) in series [2] worked out at 36 nM.
Turning to `CC1=C(/C=C/C(C)=C/C=C/C(C)=C/C(=O)O)C(C)(C)CCC1` [All-trans-retinoic acid, reference compound], the EC (33% CD11b positive cells) in series [1] amounted to 0.0018 µM.
Regarding `CC1(C)CCC(C)(C)c2cc(-c3ccc(-c4ccc(C(=O)O)cc4)[nH]3)ccc21` [1), reference compound], the EC (33% CD11b positive cells) in series [1] amounted to 0.00094 µM. For the same compound, the concentration for half-maximal inhibition (IC50) in series [2] came out at 0.5 nM.
Turning to `CC1(C)CCC(C)(C)c2nc(-c3cc(-c4ccc(C(=O)O)cc4)no3)cnc21` [Compound of Ex. 23, 4-[3-[5-[2-(5,6,7,8-Tetrahydro-5,5,8,8-tetramethylquinoxalyl)]isoxazolyl]]benzoic acid], in series [1], the EC (33% CD11b positive cells) came to 0.0006 µM. The same compound displayed a half-inhibitory concentration (IC50) in series [2] of 11 nM.
Take `CN1CCCC(C)(C)c2cc(-c3ccc(-c4ccc(C(=O)O)cc4)[nH]3)ccc21` [Compound of Ex. 85, 4-{2-{5-[7-(1,5,5-Trimethyl-2,3,4,5-tetrahydro-1H-benzazepinyl)]pyrrolyl}}benzoic acid]: the EC (33% CD11b positive cells) in series [1] is 0.001 µM. The IC50 in series [2] was < 0.5 nM.
On to `CC(C)c1ncc(-c2ccc(-c3ccc(C(=O)O)cc3)[nH]2)nc1C(C)C` [Compound of Ex. 42, 4-[2-[5-[2-(5,6-Diisopropylpyrazinyl)]pyrrolyl]]benzoic acid], for which the melting point is 246 °C (dec.). In series [1], the EC (33% CD11b positive cells) came to 0.00033 µM. In series [2], this compound yielded a half-maximal inhibitory concentration (IC50) of 2 nM.
For the compound `CC(C)c1ncc(-c2ccc(-c3ccc(C(=O)O)cc3)n2C(C)C)nc1C(C)C` [Example 51, 4-[2-[5-[2-(5,6-Diisopropylpyrazinyl)]-1-isopropylpyrrolyl]]benzoic acid], the melting point is 215 °C (dec.).
Compound `CC(C)c1ncc(-c2cc(-c3ccc(C(=O)O)cc3)co2)nc1C(C)C` [Example 38, 4-[4-[2-[2-(5,6-Diisopropylpyrazinyl)]furyl]]benzoic acid] came in with a melting point of 215 to 218 °C.
With `Cn1cc(-c2ccc(C(=O)O)cc2)cc1-c1cnc2c(n1)C(C)(C)CC2(C)C` [Example 35, 4-[4-[2-[2-(5,5,7,7-Tetramethylcyclopenta[b]pyrazinyl)]-1-methylpyrrolyl]]benzoic acid], the melting point is 250 °C (dec.).
Turning to `CC1(C)CCC(C)(C)c2nc(-c3cc(-c4ccc(C(=O)O)cc4)co3)cnc21` [Compound of Ex. 4, 4-[4-[2-[2-(5,6,7,8-Tetrahydro-5,5,8,8-tetramethylquinoxalyl)]furyl]]benzoic acid], in series [1], the EC (33% CD11b positive cells) turned out to be 0.0002 µM. The compound further came in with a half-inhibitory concentration (IC50) in series [2] of 7.2 nM.
`Cc1[nH]c(-c2cnc3c(n2)C(C)(C)CCC3(C)C)cc1-c1ccc(C(=O)O)cc1` [Example 29, 4-[3-[5-[2-(5,6,7,8-Tetrahydro-5,5,8,8-tetramethylquinoxalyl)]-2-methylpyrrolyl]]benzoic acid]: the melting point lay in the range of 248 to 250 °C.
Compound `CC1(C)CCC(C)(C)c2nc(-c3cc(-c4ccc(C(=O)O)cc4)cn3Cc3cccnc3)cnc21` [Example 41, 4-[4-[2-[2-(5,6,7,8-tetrahydro-5,5,8,8-tetramethylquinoxalyl)]-1-(3-pyridylmethyl)pyrrolyl]]benzoic acid] registered a melting point of 263 to 266 °C.
On to `O=C(O)c1ccc(NC(=O)c2cnc(C3CCCC3)c(C3CCCC3)n2)cc1` [Example 90, 4-(2,3-Dicyclopentyl-2-pyrazinecarbamoyl)benzoic acid], for which the melting point lay in the range of 248 to 250 °C.
For the compound `CC1(C)CCC(C)(C)c2nc(-c3ccc(-c4ccc(C(=O)O)cc4)[nH]3)cnc21` [Compound of Ex. 6, 4-[2-[5-[2-(5,6,7,8-Tetrahydro-5,5,8,8-tetramethylquinoxalyl)]pyrrolyl]]benzoic acid], the EC (33% CD11b positive cells) in series [1] came to 5.6e-05 µM. The IC50 in series [2] is 1.6 nM.
With `CC1(C)CC(C)(C)c2nc(-c3ccc(-c4ccc(C(=O)O)cc4)o3)cnc21` [Example 49, 4-[2-[5-[2-(5,5,7,7-Tetramethylcyclopenta[b]pyrazinyl)]-furyl]]benzoic acid], the melting point was 238 to 240 °C.
Compound `CC(C)c1ncc(-c2cc(-c3ccc(C(=O)O)cc3)cs2)nc1C(C)C` [Example 30, 4-[4-[2-[2-(5,6-Diisopropylpyrazinyl)]thienyl]]benzoic acid] displayed a melting point of 226 to 229 °C.
For the compound `CC1(C)CC(C)(C)c2nc(-c3ccc(-c4ccc(C(=O)O)cc4)s3)cnc21` [Example 47, 4-[2-[5-[2-(5,5,7,7-Tetramethylcyclopenta[b]pyrazinyl)]-thienyl]]benzoic acid], the melting point is 275 °C (dec.).
The same measure, in the same setting: the same measure for `CC1(C)CC(C)(C)c2nc(C(=O)Nc3ccc(C(=O)O)cc3)cnc21` [Example 89, 4-(5,5,7,7-Tetramethyl-2-cyclopenta[b]pyrazinecarbamoyl)benzoic acid]: 236 to 238 °C.
